How the values were obtained:
ICR mice [1] = experiment: 5-HTP induced head twitching mouse model; details: once a day for 14 days, 150 mg/Kg 5-HTP i.p. 0.5 h after last administration, counted in 20 min, blank control 34.1 ± 18.1, **P < 0.01
patients with depression = experiment: Clinical efficacy observation by reduction rate of HAM-D; type: in vivo, human; details: 40 patients, oral 1.5 mg nootkatone monomer/Kg/time, twice a day, 6 weeks
Text: Forty patients were selected, wherein 20 were male and 20 were female, and their disease durations were from 1 month to 2 years. Diagnosis criteria of depression that conformed to Chinese Classification and Diagnostic Criteria of Mental Disorders scored […] according to the first 17 items in the Hamilton Depression Rating Scale (HAM-D) shown in Table 4. First-onset patients, or patients that had not taken antidepressants and antipsychotics and had not been subjected to electric shock therapy over the past week, and patients with depressive episodes of unipolar affective disorder, aged 20-50 years. Patients having depressive disorder caused by bipolar affective disorder and other causes, severe suicidal tendency, and severe abnormalities in laboratory tests (pregnant or lactating women) were eliminated.
Comment: 0 to 4 in the items of Standard for Evaluation and Point referred to the scores, and the standard for evaluation is: the total score <7 means normality; the total score between 7 and 17 means possible depression; the total score between 17 and 24 means definite depression; and the total score >24 means severe depression.
Nootkatone preparation was used to treat the 40 patients, and the administration manner was: orally taking, 1.5 mg nootkatone monomer/Kg/time, twice a day, and 6 weeks were one course of treatment. […] After 1 course of treatment, reduction rate of HAM-D was used to measure the curative efficacy of the traditional Chinese medicine on patients, reduction rate of HAM-D=(total scores before the treatment−total scores after the treatment)/total scores before the treatment×100%.
The standard of curative efficacy evaluation is hereinafter:
cure: reduction rate of HAMD is >75%;
improved: reduction rate of HAMD is from 25% to […];
invalid: reduction rate of HAMD is <25%.

ICR mice [2] = details: intragastric once a day for 14 days, nootkatone 1-2 mg/Kg, Prozac 20 mg/Kg
ICR mice [3] = experiment: Forced swimming test of mice; details: once a day for 14 days, 1.5 h after last administration, last 4 min of 6 min, blank control 148.1 ± 18.9, **P < 0.01
ICR mice [4] = experiment: Tail suspension test of mice; details: once a day for 14 days, 1.5 h after last administration, last 4 min of 6 min, blank control 151.1 ± 20.1, **P < 0.01
[5] = 1 mg/Kg (small dose) intragastric
[6] = 1.5 mg/Kg (medium dose) intragastric
[7] = 2 mg/Kg (large dose) intragastric

C=C(C)[C@@H]1CCC2=CC(=O)C[C@@H](C)[C@]2(C)C1 [Nootkatone, nootkatone]
Head-Twitching Number (ICR mice [1]; [5]): 58.0 ± 26.2** Time
Head-Twitching Number (ICR mice [1]; [6]): 60.2 ± 25.1** Time
Head-Twitching Number (ICR mice [1]; [7]): 63.1 ± 22.5** Time
Adverse reactions in patients (patients with depression): no case has adverse reactions
Curative effective rate (patients with depression): 95%
Share of patients invalid (reduction rate of HAMD <25%) (patients with depression; 2 cases): 5%
Share of patients improved (reduction rate of HAMD from 25% to 50%) (patients with depression; 10 cases): 25%
Share of patients cured (reduction rate of HAMD >75%) (patients with depression; 14 cases): 35%
Share of patients significantly improved (reduction rate of HAMD from 51% to 75%) (patients with depression; 14 cases): 35%
Toxicity judged from weight and fur appearance of mice (ICR mice [2]): neither nootkatone nor the positive drug Prozac has toxicity
Immobility Time, forced swimming test (ICR mice [3]; [5]): 74.0 ± 26.9** s
Immobility Time, forced swimming test (ICR mice [3]; [6]): 70.2 ± 22.3** s
Immobility Time, forced swimming test (ICR mice [3]; [7]): 66.1 ± 21.6** s
Immobility Time, tail suspension test (ICR mice [4]; [5]): 84.0 ± 17.6** S
Immobility Time, tail suspension test (ICR mice [4]; [6]): 80.2 ± 21.6** S
Immobility Time, tail suspension test (ICR mice [4]; [7]): 75.1 ± 19.6** S

CNCCC(Oc1ccc(C(F)(F)F)cc1)c1ccccc1 (centres unmarked) [Prozac, fluoxetine, reference compound]
Head-Twitching Number (ICR mice [1]; 20 mg/Kg intragastric): 57.9 ± 10.4** Time
Weight of mice before administration, one week and 2 weeks after administration (ICR mice [2]): no significant difference
Immobility Time, forced swimming test (ICR mice [3]; 20 mg/Kg intragastric): 80.9 ± 20.4** s
Immobility Time, tail suspension test (ICR mice [4]; 20 mg/Kg intragastric): 87.9 ± 22.0** S

Reference: patent publication US20190054041A1, “USE OF NOOTKATONE” (INSTITUTE OF TROPICAL BIOSCIENCE AND BIOTECHOLOGY CHINESE …, priority 2016, published 2019)
